Earlier results on five molecules are cited in patent US20070281345A1, “Enzymatic Method of Making Aldehydes from Fatty Acids” (Archer-Daniels-Midland Company, priority 2006, published 2007).

The conditions of the data set: AOCS Method Tg1a-67 (determined) or Cd1c-85 (calculated).

In the case of `CCCCCCCC/C=C\CCCCCCCC(=O)O` [oleic acid], the iodine value is listed as 89. `CCC=CCC=CCC=CCC=CCC=CCCCC(=O)O` [eicosapentaenoic acid, 5,8,11,14,17-eicosapentaenoic acid]: the iodine value result is recorded as “greater than the iodine value of linoleic acid”. In the case of `CCCCC/C=C\C/C=C\C/C=C\C/C=C\CCCC(=O)O` [arachidonic acid], the iodine value entry is “greater than the iodine value of linoleic acid”. With `CCCCC/C=C\C/C=C\CCCCCCCC(=O)O` [linoleic acid], the iodine value is 173.

Regarding `CCC=CCC=CCC=CCC=CCC=CCC=CCCC(=O)O` [docosahexaenoic acid, 4,7,10,13,16,19-docosahexaenoic acid], the iodine value result is recorded as “greater than the iodine value of linoleic acid”.
